Experimental data: US6355443B1, “4-(4-hydroxystyryl) pyridine-containing substrates for an analyte dependent enzyme activation system” (priority 1999, dated 2002)

Key:
[1] = molecular target: T1, Horseradish peroxidase (HRP) conjugated wheat germ agglutinin (Armoracia rusticana, UniProt P00433); assay: Sensitive HRP localization using a 4-(4-hydroxystyryl) pyridine containing compound; settings: sections of mouse intestine; for fluorescence labeling of tissue sections after HRP-catalyzed deposition: HRP-conjugated wheat germ agglutinin 0.5 μg/ml, substrate 100 μg/ml, 10 min, 360 nm excitation/>400 nm emission
T1 construct: purchased Sigma; St. Louis, Mo
T1 sequence (P00433 31-338 limits assumed): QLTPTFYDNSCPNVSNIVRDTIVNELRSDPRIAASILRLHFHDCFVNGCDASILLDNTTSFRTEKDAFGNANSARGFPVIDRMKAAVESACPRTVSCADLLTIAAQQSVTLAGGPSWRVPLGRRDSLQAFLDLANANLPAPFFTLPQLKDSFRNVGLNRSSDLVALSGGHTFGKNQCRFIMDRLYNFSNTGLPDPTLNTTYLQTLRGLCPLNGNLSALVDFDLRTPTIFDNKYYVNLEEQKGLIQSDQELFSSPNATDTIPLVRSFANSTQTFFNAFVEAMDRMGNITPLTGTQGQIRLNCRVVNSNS
Procedure: Sections of paraffin-embedded mouse intestine were deparaffinized and non-specific binding sites blocked by treatment for thirty minutes in PBS-blocking buffer (PBS-BB; 0.1M phosphate buffered saline, pH 7.2; 1.0% bovine serum albumin, 0.2% non-fat powdered milk, and 0.3% Triton X-100). Horseradish peroxidase (HRP) conjugated wheat germ agglutinin (Sigma; St. Louis, Mo.) at a concentration of 0.5 μg/ml in PBS-BB was incubated on sections for one hour at room temperature. Control sections were incubated in PBS-BB alone. Sections were then washed in PBS (three X for five minutes each wash) and reacted for ten minutes at room temperature in a solution containing 4-(4-hydroxystyryl) pyridinium propylsulfonate (HPPS) (Molecular Biosciences; Boulder, Colo.) at 100 μg/ml in TSA Amplification Diluent, (NEN Life Science Products, Inc.; Boston, Mass.). Sections were then washed in PBS (three X for five minutes each wash), mounted in PBS:Glycerol (1:1) and coverslipped. Sections were viewed with a Zeiss Axioskop microscope equipped with epifluorescence and a filter set with excitation/emission characteristics of 360 nm peak excitation/>400 nm long pass emission. Photomicrographs were taken using a Zeiss MC100 camera system.

[2] = molecular target: T1, Horseradish peroxidase (HRP) conjugated wheat germ agglutinin; assay: Stability of deposited fluorescent reaction product in aqueous vs non-aqueous mounting medium
Procedure: Sections of paraffin-embedded mouse intestine were deparaffinized and non-specific binding sites were blocked by treatment for thirty minutes in PBS-BB. HRP conjugated wheat germ agglutinin (Sigma), at a concentration of 0.5 μg/ml in PBS-BB, was incubated on sections for one hour at room temperature. Sections were then washed in PBS (three X for five minutes each wash) and were reacted for ten minutes at room temperature in a solution of 4-(4-hydroxystyryl) methylpyridinium tosylate (HMPT) (Molecular Biosciences) at 100 μg/ml in TSA Amplification Diluent (NEN Life Science Products, Inc.). Sections were then washed in PBS (three X for five minutes each wash) and either mounted in PBS:Glycerol (1:1) or dehydrated in graded ethanol solutions (0%, 70%, 95%, 100%, 100% three minutes each) and xylene (two X for three minutes each) mounted in Permount (a non-aqueous mounting medium; Fisher Scientific, Pittsburgh, Pa.) and coverslipped. The fluorescent signal intensity of slides mounted in aqueous (PBS:Glycerol) or non-aqueous (Permount) media was compared using a Zeiss Axioskop microscope equipped with epifluorescence and a 360 nm excitation/>400 nm emission filter set. Photomicrographs were taken using a Zeiss MC100 camera system and standard two second exposures.

Compound: 4-(4-hydroxystyryl) pyridinium propylsulfonate [HPPS]
- concentration of conjugated wheat germ agglutinin used/required for wheat germ agglutinin localization [1]: 0.5 µg/mL
- fluorescence labeling of tissue sections after HRP-catalyzed deposition [1]: intense HPPS fluorescence was localized to intestinal goblet cells
- fluorescence labeling of tissue sections after HRP-catalyzed deposition ([1]; listed as EPPS): intense EPPS fluorescence localized to intestinal goblet cells

Compound: C[n+]1ccc(C=Cc2ccc(O)cc2)cc1.Cc1ccc(S(=O)(=O)[O-])cc1 [HMPT, 4-(4-hydroxystyryl) methylpyridinium tosylate]
- background signal / signal/noise ratio when mounted in non-aqueous media ([2]; Permount, non-aqueous): background signal is reduced resulting in a better signal/noise ratio
- localization of wheat germ agglutinin reactivity ([2]; aqueous and non-aqueous medium): Strong wheat germ agglutinin reactivity was localized to the intestinal epithelium under both conditions
- fluorescence in aqueous solution ([2]; section of mouse intestine, aqueous (FIG. 2A)): bright fluorescence in aqueous solution
- reaction product fluorescence in non-aqueous medium ([2]; section of mouse intestine, non-aqueous (FIG. 2B)): bright reaction product in a non-aqueous medium
- fluorescence intensity of reaction product in aqueous versus non-aqueous medium ([2]; sections of mouse intestine, PBS:Glycerol (aqueous) vs Permount (non-aqueous), two second exposures): equally bright in aqueous (FIG. 2A) and non-aqueous (FIG. 2B) medium
